The target of test [1] is DNA topoisomerase 2-alpha (Homo sapiens, UniProt P11388). The test is described as follows: Inhibition of recombinant human topoisomerase 2alpha using supercoiled pNO1 plasmid as substrate after 30 mins by SYBR-GOLD staining based fluorimetric analysis.
The target in test [2] is DNA topoisomerase 2-beta (Homo sapiens, UniProt Q02880). As to the kind of experiment: Poison activity at recombinant human topoisomerase 2beta using pBR322 plasmid as substrate after 30 mins by ethidium bromide staining based agarose gel electrophoresis.
Sequence of DNA topoisomerase 2-beta (Q02880 whole entry): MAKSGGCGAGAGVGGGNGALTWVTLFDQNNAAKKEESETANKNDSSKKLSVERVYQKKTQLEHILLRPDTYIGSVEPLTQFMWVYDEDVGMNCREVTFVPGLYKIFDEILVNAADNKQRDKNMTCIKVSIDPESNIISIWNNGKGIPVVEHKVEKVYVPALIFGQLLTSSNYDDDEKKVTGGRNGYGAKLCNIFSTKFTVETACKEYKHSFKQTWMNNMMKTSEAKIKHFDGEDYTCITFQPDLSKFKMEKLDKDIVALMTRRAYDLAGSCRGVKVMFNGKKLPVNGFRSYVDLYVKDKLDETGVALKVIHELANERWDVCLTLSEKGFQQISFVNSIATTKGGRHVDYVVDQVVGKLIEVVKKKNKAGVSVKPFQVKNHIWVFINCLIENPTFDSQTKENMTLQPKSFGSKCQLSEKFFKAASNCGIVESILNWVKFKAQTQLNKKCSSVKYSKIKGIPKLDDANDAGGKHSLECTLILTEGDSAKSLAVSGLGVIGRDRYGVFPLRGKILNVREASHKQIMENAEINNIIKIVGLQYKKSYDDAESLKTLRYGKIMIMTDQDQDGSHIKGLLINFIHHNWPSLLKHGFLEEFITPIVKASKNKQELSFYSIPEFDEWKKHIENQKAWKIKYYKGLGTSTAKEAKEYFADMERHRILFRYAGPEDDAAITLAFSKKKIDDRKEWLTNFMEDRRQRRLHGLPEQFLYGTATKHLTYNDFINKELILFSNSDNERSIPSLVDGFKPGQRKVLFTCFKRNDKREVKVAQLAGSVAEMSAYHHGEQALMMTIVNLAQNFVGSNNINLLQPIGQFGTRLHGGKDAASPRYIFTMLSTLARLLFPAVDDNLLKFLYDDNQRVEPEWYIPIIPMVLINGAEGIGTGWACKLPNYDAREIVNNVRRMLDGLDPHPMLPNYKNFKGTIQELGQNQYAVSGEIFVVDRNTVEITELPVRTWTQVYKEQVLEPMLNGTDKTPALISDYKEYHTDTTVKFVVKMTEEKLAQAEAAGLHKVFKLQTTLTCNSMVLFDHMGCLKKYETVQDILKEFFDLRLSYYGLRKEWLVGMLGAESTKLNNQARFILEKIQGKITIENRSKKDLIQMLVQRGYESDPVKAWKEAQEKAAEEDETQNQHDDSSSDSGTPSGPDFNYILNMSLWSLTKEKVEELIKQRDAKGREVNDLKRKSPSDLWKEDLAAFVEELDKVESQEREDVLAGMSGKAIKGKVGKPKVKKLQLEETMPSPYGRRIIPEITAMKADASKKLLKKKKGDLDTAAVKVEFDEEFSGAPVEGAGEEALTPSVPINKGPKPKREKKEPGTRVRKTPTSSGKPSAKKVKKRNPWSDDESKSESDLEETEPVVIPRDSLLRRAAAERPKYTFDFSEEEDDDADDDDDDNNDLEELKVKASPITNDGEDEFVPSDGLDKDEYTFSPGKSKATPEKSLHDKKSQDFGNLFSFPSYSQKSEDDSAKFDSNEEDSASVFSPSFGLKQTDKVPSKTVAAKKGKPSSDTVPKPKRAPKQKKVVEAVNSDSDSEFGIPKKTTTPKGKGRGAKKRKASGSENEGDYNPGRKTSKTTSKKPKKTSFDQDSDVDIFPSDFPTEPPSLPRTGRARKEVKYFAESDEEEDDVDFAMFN
The subject of test [3] is MCF7. As to the kind of experiment: Antiproliferative activity against human MCF7 cells after 24 hrs by MTT assay. As to conditions: MCF7, 24 h. It is filed as functional, cell-based. (In general: Formazan colour is commonly taken as a measure of viable cells.)
For test [4], the system named is MDA-MB-231. As to the kind of experiment: Antiproliferative activity against human MDA-MB-231 cells after 24 hrs by MTT assay. It is filed as functional, cell-based. As to conditions: MDA-MB-231, 24 h.
For test [5], the system named is Panel NCI-60 (60 carcinoma cell lines). The test is described as follows: Antiproliferative activity against human NCI60 cells after 48 hrs by SRB assay. It is filed as functional.

Molecules are shown by their SMILES. Bounds are passed on as bounds.

Sequence of DNA topoisomerase 2-alpha (P11388 whole entry): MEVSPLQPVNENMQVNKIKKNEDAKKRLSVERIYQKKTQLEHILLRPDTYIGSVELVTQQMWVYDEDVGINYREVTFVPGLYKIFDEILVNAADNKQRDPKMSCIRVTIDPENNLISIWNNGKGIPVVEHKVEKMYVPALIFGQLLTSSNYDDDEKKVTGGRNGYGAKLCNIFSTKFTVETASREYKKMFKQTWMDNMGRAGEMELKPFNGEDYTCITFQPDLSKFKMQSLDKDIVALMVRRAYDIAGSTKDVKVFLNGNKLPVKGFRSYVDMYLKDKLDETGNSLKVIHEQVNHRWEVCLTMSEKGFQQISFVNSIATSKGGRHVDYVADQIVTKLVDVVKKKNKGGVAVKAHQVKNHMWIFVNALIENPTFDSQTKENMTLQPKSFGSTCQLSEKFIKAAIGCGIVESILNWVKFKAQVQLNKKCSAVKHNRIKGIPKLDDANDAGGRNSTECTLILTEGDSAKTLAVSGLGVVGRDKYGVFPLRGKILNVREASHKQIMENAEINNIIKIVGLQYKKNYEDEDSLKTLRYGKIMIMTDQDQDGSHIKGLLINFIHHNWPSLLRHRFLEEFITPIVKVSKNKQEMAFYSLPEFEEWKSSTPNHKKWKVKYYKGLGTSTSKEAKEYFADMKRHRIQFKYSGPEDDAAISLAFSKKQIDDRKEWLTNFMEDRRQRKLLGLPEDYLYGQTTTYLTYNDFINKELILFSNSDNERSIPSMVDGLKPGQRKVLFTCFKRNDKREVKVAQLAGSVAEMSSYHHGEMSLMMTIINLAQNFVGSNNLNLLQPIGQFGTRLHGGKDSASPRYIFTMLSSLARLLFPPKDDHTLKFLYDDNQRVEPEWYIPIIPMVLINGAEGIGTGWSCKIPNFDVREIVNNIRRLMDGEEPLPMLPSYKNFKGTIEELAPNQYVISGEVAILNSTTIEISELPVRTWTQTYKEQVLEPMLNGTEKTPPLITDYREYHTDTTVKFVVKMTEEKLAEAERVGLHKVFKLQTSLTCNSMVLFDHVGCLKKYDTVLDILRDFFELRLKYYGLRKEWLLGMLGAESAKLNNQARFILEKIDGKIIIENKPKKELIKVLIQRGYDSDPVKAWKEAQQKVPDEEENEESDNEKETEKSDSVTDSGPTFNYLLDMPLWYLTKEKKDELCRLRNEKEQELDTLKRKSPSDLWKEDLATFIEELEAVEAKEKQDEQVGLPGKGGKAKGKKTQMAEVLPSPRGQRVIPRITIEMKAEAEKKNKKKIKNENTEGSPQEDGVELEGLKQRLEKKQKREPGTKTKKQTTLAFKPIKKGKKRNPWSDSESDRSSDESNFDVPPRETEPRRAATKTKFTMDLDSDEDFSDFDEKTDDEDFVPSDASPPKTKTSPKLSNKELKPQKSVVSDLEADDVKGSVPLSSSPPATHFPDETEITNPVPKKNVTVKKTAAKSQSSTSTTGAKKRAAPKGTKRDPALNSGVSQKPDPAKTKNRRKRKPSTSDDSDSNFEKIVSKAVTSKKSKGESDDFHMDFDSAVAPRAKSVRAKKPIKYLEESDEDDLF

By IC50 is commonly meant the concentration that inhibits the measured activity by half. With `O=C(O)c1ccc(Nc2ncnc3nc[nH]c23)cc1`, the IC50 in test [1] was determined as 44 µM.

`O=C(O)c1cccc(Nc2ncnc3[nH]cnc23)c1`: the IC50 in test [1] amounted to 65 µM.

With `CN(C)CCCNc1ccc(NCCCN(C)C)c2c1C(=O)c1ccc(C(=O)Nc3ccc(S(C)(=O)=O)cc3)cc1C2=O`, in test [2], the IC50 fell in the range of 4.34 to 6.71 µM.

Turning to `Oc1cccc(-c2nnc(Nc3cccc(F)c3)s2)c1`, the half-inhibitory concentration (IC50) is 140 µM in test [3] and 170 µM in test [4].

For `CN(C)CCNc1ccc(NCCN(C)C)c2c1C(=O)c1ccc(C(=O)Nc3ccc(S(C)(=O)=O)cc3)cc1C2=O`, in test [2], the IC50 lay within 5.25 to 9.31 µM.

Regarding `Fc1ccc(Nc2nnc(-c3ccc(Cl)cc3Cl)s2)cc1`, the results for the IC50 in test [3] and in test [4] were 160 µM and 130 µM, respectively.

As to `Clc1ccc(OCc2nnc(Nc3ccc(Br)cc3)s2)c(Cl)c1`, the IC50 in test [3] and in test [4] was over 200 µM throughout.

Take `Fc1cccc(Nc2nnc(-c3cccc(Cl)c3)s2)c1`: the IC50 in test [3] and in test [4] was over 200 µM throughout.

`Clc1ccc(-c2nnc(Nc3ccc(Br)cc3)s2)c(Cl)c1`: the IC50 is 120 µM in test [3] and 70 µM in test [4].

As for `COc1cc(S(C)(=O)=O)ccc1NC(=O)c1ccc2c(c1)C(=O)c1c(NCCCN(C)C)ccc(NCCCN(C)C)c1C2=O`, the IC50 in test [2] fell in the range of 1.06 to 3.33 µM.

With `Fc1ccc(Nc2nnc(COc3ccc(Cl)cc3Cl)s2)cc1`, the IC50 in test [3] and in test [4] was over 200 µM in each case.

One may read the GI50 as the concentration giving 50% growth inhibition. Low values mean more potent growth inhibition, high ones less potent growth inhibition. Molecule `N[C@@H](Cc1ccc(N(CCCl)CCCl)cc1)C(=O)O` had a GI50 in test [5] of 29 µM.

As for `O=C1c2ccccc2C(=O)c2c(NCCNCCO)ccc(NCCNCCO)c21` [AMETANTRONE], the IC50 in test [2] was in the range of 0.03 to 0.99 µM.

`Cn1c(CCCC(=O)O)nc2cc(N(CCCl)CCCl)ccc21` [BENDAMUSTINE] had a GI50 in test [5] of 70 µM.

In the case of `O=C(O)CCCc1ccc(N(CCCl)CCCl)cc1` [CHLORAMBUCIL], in test [5], the GI50 came to 60 µM.

On to `COc1cc([C@@H]2c3cc4c(cc3[C@@H](O[C@@H]3O[C@@H]5CO[C@@H](C)O[C@H]5[C@H](O)[C@H]3O)[C@H]3COC(=O)[C@H]23)OCO4)cc(OC)c1O` [ETOPOSIDE], for which halving of growth in test [5] (GI50) required 12 µM.

The values above are taken from ChEMBL document CHEMBL4382195, “Discovery of Novel Topoisomerase II Inhibitors by Medicinal Chemistry Approaches” (J Med Chem, 2018).
